Tests used:
Assay in all cases: KINOMEscan competition binding
Conditions in all cases: compound 10.0 µM
[1] = tested on: ABL1 (human), P00519 [M351T]
ACVR1B (human) = ACVR1B (human) (UniProt P36896)
BMPR1B (human) = BMPR1B (human) (UniProt O00238)
CAMK4 (human) = CAMK4 (human) (UniProt Q16566)
CDC42BPB (human) = CDC42BPB (human) (UniProt Q9Y5S2)
CDC42BPG (human) = CDC42BPG (human) (UniProt Q6DT37)
CDK5 (human) = CDK5 (human) (UniProt Q00535)
CLK2 (human) = CLK2 (human) (UniProt P49760)
CSNK2A1 (human) = CSNK2A1 (human) (UniProt P68400)
DAPK3 (human) = DAPK3 (human) (UniProt O43293)
EPHA6 (human) = EPHA6 (human) (UniProt Q9UF33)
EPHB2 (human) = EPHB2 (human) (UniProt P29323)
FLT3 (human) = FLT3 (human) (UniProt P36888)
GAK (human) = GAK (human) (UniProt O14976)
GAK (human), sequence (O14976 whole entry, looked up): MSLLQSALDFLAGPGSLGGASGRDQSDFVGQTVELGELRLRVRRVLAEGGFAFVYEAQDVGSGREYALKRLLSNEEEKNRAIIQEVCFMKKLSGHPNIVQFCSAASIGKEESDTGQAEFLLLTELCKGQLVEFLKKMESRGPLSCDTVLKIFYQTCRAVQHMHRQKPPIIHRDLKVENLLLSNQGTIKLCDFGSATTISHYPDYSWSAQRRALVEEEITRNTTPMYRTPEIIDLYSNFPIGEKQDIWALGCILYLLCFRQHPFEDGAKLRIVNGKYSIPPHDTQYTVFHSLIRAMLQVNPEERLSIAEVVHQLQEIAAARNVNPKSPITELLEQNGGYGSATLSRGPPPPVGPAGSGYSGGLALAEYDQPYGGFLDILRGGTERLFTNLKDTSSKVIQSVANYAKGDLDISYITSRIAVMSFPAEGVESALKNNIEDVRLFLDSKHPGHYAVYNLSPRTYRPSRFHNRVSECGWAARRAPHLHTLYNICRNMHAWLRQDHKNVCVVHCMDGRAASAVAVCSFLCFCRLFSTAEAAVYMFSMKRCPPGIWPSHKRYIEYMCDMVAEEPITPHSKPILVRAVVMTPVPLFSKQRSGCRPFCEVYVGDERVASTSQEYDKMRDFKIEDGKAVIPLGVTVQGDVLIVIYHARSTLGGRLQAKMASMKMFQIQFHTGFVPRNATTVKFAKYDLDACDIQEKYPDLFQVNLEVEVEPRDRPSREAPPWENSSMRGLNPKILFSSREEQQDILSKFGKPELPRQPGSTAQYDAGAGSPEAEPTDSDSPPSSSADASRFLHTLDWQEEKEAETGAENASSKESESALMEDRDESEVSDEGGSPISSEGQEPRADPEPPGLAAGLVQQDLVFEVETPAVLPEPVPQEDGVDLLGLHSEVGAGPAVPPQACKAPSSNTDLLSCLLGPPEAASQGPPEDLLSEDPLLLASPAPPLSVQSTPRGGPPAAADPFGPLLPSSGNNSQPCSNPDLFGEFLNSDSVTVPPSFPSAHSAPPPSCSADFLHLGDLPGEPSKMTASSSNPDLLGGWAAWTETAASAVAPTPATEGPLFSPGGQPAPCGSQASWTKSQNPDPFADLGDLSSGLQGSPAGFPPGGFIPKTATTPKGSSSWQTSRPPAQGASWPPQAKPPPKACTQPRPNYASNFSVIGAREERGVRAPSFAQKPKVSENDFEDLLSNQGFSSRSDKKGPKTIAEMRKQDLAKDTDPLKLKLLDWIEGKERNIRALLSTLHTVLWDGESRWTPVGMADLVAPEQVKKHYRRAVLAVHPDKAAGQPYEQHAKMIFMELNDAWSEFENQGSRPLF

INSRR (human) = INSRR (human) (UniProt P14616)
[2] = target: JAK1 JH1 catalytic (human) (UniProt P23458)
LIMK1 (human) = LIMK1 (human) (UniProt P53667)
MAP2K1 (human) = MAP2K1 (human) (UniProt Q02750)
MAP3K10 (human) = MAP3K10 (human) (UniProt Q02779)
MAP3K10 (human), sequence (Q02779 whole entry, looked up): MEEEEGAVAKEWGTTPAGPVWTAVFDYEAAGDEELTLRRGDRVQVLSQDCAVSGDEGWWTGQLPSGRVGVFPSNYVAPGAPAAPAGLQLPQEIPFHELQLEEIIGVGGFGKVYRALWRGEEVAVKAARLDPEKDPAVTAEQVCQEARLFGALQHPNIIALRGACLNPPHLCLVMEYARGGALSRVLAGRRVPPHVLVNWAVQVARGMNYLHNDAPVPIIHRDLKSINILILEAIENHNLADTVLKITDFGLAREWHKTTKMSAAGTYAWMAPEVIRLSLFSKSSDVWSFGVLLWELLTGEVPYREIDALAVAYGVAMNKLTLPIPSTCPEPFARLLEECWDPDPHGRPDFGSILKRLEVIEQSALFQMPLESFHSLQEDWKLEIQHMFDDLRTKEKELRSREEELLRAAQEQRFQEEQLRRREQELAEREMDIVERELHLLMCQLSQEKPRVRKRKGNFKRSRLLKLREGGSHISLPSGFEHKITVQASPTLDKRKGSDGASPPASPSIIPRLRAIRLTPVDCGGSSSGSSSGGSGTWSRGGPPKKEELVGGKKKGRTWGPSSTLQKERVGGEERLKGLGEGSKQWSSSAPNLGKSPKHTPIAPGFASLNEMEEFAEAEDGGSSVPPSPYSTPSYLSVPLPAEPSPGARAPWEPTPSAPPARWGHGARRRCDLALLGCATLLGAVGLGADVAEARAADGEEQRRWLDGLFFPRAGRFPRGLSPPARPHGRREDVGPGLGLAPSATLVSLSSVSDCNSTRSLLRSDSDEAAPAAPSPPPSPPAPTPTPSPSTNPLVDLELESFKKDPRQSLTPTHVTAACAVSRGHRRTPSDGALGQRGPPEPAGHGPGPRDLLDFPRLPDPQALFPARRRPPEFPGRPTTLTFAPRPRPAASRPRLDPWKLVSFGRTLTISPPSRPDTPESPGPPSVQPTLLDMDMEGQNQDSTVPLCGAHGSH

MAP3K3 (human) = MAP3K3 (human) (UniProt Q99759)
MAP3K9 (human) = MAP3K9 (human) (UniProt P80192)
MAP4K5 (human) = MAP4K5 (human) (UniProt Q9Y4K4)
MAPK15 (human) = MAPK15 (human) (UniProt Q8TD08)
MAPK15 (human), sequence (Q8TD08 whole entry, looked up): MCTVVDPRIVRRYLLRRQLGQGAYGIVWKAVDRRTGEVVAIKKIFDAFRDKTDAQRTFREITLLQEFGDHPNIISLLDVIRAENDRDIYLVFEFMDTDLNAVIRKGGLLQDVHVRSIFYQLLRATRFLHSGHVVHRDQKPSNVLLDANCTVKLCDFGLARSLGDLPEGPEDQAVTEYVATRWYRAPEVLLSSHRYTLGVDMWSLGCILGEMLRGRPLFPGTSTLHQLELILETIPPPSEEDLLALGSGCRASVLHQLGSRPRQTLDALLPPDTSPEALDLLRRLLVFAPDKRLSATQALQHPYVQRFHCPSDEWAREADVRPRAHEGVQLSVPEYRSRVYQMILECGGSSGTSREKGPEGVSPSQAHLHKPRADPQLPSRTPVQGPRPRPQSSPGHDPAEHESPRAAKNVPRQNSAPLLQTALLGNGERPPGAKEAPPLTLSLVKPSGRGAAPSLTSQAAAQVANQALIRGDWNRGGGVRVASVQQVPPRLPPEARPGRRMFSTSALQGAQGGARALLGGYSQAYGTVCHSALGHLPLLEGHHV

MAPK3 (human) = MAPK3 (human) (UniProt P27361)
MAPK8 (human) = MAPK8 (human) (UniProt P45983)
MELK (human) = MELK (human) (UniProt Q14680)
MYLK (human) = MYLK (human) (UniProt Q15746)
MYO3A (human) = MYO3A (human) (UniProt Q8NEV4)
NEK5 (human) = NEK5 (human) (UniProt Q6P3R8)
NTRK1 (human) = NTRK1 (human) (UniProt P04629)
NTRK1 (human), sequence (P04629 whole entry, looked up): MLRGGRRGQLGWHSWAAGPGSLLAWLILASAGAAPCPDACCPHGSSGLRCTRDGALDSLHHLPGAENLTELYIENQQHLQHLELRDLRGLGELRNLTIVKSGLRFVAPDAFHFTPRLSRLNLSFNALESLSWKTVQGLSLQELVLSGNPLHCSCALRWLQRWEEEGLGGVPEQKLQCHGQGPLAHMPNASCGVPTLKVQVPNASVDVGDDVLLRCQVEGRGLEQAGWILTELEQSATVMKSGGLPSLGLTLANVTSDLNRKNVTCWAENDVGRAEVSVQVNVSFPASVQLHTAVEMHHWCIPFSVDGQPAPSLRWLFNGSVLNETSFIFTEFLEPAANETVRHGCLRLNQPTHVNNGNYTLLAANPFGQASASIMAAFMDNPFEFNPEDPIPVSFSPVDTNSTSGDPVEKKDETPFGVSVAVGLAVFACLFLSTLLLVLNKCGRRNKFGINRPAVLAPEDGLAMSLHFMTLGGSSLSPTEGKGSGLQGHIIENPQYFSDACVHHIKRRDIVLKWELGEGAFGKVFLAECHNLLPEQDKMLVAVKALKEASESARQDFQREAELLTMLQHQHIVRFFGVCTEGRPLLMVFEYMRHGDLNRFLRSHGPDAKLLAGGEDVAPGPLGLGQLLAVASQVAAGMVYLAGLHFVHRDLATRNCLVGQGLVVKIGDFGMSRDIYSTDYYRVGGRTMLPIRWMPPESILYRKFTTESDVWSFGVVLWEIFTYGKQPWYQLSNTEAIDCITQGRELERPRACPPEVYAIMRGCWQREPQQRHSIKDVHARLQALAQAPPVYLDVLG

PIK3CA (human) = PIK3CA (human) (UniProt P42336)
PRKACA (human) = PRKACA (human) (UniProt P17612)
RAF1 (human) = RAF1 (human) (UniProt P04049)
RIPK2 (human) = RIPK2 (human) (UniProt O43353)
RIPK2 (human), sequence (O43353 whole entry, looked up): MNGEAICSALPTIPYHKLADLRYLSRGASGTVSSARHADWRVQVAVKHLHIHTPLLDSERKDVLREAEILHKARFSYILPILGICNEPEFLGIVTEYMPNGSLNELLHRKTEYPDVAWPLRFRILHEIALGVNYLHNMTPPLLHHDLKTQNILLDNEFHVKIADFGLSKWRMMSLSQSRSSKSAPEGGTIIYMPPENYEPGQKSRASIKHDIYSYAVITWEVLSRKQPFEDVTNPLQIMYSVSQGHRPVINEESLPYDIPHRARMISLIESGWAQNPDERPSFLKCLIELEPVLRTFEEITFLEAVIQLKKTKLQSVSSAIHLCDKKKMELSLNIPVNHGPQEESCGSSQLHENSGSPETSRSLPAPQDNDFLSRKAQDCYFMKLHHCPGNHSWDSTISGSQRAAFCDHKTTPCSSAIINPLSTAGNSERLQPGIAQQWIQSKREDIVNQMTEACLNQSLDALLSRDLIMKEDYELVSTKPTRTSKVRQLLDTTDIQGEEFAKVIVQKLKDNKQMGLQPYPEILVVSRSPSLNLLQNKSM

SIK2 (human) = SIK2 (human) (UniProt Q9H0K1)
STK3 (human) = STK3 (human) (UniProt Q13188)
STK38L (human) = STK38L (human) (UniProt Q9Y2H1)
TGFBR1 (human) = TGFBR1 (human) (UniProt P36897)
TIE1 (human) = TIE1 (human) (UniProt P35590)
TLK2 (human) = TLK2 (human) (UniProt Q86UE8)
TSSK1B (human) = TSSK1B (human) (UniProt Q9BXA7)
ZAP70 (human) = ZAP70 (human) (UniProt P43403)

CDK5 (human), sequence (Q00535 whole entry, looked up): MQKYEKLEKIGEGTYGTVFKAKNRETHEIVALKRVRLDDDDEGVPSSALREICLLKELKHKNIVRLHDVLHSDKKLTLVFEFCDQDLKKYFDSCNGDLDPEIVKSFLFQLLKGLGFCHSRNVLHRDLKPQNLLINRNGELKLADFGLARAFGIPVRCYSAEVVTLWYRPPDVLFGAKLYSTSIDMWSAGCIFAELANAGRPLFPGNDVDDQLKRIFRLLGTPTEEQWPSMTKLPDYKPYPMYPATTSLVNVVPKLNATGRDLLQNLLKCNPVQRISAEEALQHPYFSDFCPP
BMPR1B (human), sequence (O00238 whole entry, looked up): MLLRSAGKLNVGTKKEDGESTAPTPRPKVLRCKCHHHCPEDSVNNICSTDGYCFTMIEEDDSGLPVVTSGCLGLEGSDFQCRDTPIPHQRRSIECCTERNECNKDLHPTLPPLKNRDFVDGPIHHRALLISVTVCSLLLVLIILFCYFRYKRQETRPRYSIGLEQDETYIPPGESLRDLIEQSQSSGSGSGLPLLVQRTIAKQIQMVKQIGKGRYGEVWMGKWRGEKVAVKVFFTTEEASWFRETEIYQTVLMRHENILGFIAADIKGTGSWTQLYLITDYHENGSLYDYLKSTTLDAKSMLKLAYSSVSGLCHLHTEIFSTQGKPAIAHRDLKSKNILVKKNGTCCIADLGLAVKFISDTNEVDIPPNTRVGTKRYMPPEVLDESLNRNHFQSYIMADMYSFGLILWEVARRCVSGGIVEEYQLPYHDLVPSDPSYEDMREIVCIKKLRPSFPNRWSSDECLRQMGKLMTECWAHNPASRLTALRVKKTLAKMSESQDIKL

## CCN1CCN(Cc2ccc(NC(=O)c3ccc(C)c(/C=C/c4cnc(Nc5cc(N6CCNCC6)nc(C)n5)cn4)c3)cc2C(F)(F)F)CC1
[1]
  kinase still bound, per cent of control: 3.8%
ACVR1B (human)
  kinase still bound, per cent of control: 96%
BMPR1B (human)
  kinase still bound, per cent of control: 77%
CAMK4 (human)
  kinase still bound, per cent of control: 100%
CDC42BPB (human)
  kinase still bound, per cent of control: 100%
CDC42BPG (human)
  kinase still bound, per cent of control: 100%
CDK5 (human)
  kinase still bound, per cent of control: 96%
CLK2 (human)
  kinase still bound, per cent of control: 86%
CSNK2A1 (human)
  kinase still bound, per cent of control: 89%
DAPK3 (human)
  kinase still bound, per cent of control: 91%
EPHA6 (human)
  kinase still bound, per cent of control: 51%
EPHB2 (human)
  kinase still bound, per cent of control: 5.7%
FLT3 (human)
  kinase still bound, per cent of control: 3.8%
GAK (human)
  kinase still bound, per cent of control: 51%
INSRR (human)
  kinase still bound, per cent of control: 44%
[2]
  kinase still bound, per cent of control: 80%
LIMK1 (human)
  kinase still bound, per cent of control: 15%
MAP2K1 (human)
  kinase still bound, per cent of control: 35%
MAP3K10 (human)
  kinase still bound, per cent of control: 30%
MAP3K3 (human)
  kinase still bound, per cent of control: 0.3%
MAP3K9 (human)
  kinase still bound, per cent of control: 21%
MAP4K5 (human)
  kinase still bound, per cent of control: 0.55%
MAPK15 (human)
  kinase still bound, per cent of control: 100%
MAPK3 (human)
  kinase still bound, per cent of control: 94%
MAPK8 (human)
  kinase still bound, per cent of control: 24%
MELK (human)
  kinase still bound, per cent of control: 25%
MYLK (human)
  kinase still bound, per cent of control: 67%
MYO3A (human)
  kinase still bound, per cent of control: 60%
NEK5 (human)
  kinase still bound, per cent of control: 49%
NTRK1 (human)
  kinase still bound, per cent of control: 0.45%
PIK3CA (human)
  kinase still bound, per cent of control: 92%
PRKACA (human)
  kinase still bound, per cent of control: 26%
RAF1 (human)
  kinase still bound, per cent of control: 43%
RIPK2 (human)
  kinase still bound, per cent of control: 5.4%
SIK2 (human)
  kinase still bound, per cent of control: 61%
STK3 (human)
  kinase still bound, per cent of control: 100%
STK38L (human)
  kinase still bound, per cent of control: 84%
TGFBR1 (human)
  kinase still bound, per cent of control: 99%
TIE1 (human)
  kinase still bound, per cent of control: 2.8%
TLK2 (human)
  kinase still bound, per cent of control: 100%
TSSK1B (human)
  kinase still bound, per cent of control: 100%
ZAP70 (human)
  kinase still bound, per cent of control: 15%

## COc1cc(N2CCC(N3CCN(C)CC3)CC2)ccc1Nc1ncc(Cl)c(Nc2ccccc2S(=O)(=O)C(C)C)n1
[1]
  kinase still bound, per cent of control: 5%
ACVR1B (human)
  kinase still bound, per cent of control: 0.05%
BMPR1B (human)
  kinase still bound, per cent of control: 1.2%
CAMK4 (human)
  kinase still bound, per cent of control: 0.5%
CDC42BPB (human)
  kinase still bound, per cent of control: 25%
CDC42BPG (human)
  kinase still bound, per cent of control: 23%
CDK5 (human)
  kinase still bound, per cent of control: 5.2%
CLK2 (human)
  kinase still bound, per cent of control: 0%
CSNK2A1 (human)
  kinase still bound, per cent of control: 27%
DAPK3 (human)
  kinase still bound, per cent of control: 4.5%
EPHA6 (human)
  kinase still bound, per cent of control: 3.1%
EPHB2 (human)
  kinase still bound, per cent of control: 33%
GAK (human)
  kinase still bound, per cent of control: 0.1%
INSRR (human)
  kinase still bound, per cent of control: 0.35%
[2]
  kinase still bound, per cent of control: 4.7%
LIMK1 (human)
  kinase still bound, per cent of control: 2.2%
MAP2K1 (human)
  kinase still bound, per cent of control: 3.6%
MAP3K10 (human)
  kinase still bound, per cent of control: 4.6%
MAP3K3 (human)
  kinase still bound, per cent of control: 2.8%
MAP3K9 (human)
  kinase still bound, per cent of control: 0.35%
MAP4K5 (human)
  kinase still bound, per cent of control: 0.3%
MAPK15 (human)
  kinase still bound, per cent of control: 0.25%
MAPK3 (human)
  kinase still bound, per cent of control: 0.1%
MAPK8 (human)
  kinase still bound, per cent of control: 5.2%
MELK (human)
  kinase still bound, per cent of control: 0.95%
MYLK (human)
  kinase still bound, per cent of control: 0.5%
MYO3A (human)
  kinase still bound, per cent of control: 0.25%
NEK5 (human)
  kinase still bound, per cent of control: 40%
NTRK1 (human)
  kinase still bound, per cent of control: 12%
PIK3CA (human)
  kinase still bound, per cent of control: 40%
PRKACA (human)
  kinase still bound, per cent of control: 11%
RAF1 (human)
  kinase still bound, per cent of control: 40%
RIPK2 (human)
  kinase still bound, per cent of control: 40%
SIK2 (human)
  kinase still bound, per cent of control: 7.5%
STK3 (human)
  kinase still bound, per cent of control: 0.25%
STK38L (human)
  kinase still bound, per cent of control: 7.3%
TGFBR1 (human)
  kinase still bound, per cent of control: 0.2%
TLK2 (human)
  kinase still bound, per cent of control: 40%
TSSK1B (human)
  kinase still bound, per cent of control: 0%
ZAP70 (human)
  kinase still bound, per cent of control: 10%

## CCOc1cc(N2CCC(N3CCCCC3)CC2)ccc1Nc1nc(Nc2ccccc2S(=O)(=O)C(C)C)c2cn[nH]c2n1
[1]
  kinase still bound, per cent of control: 53%
ACVR1B (human)
  kinase still bound, per cent of control: 100%
BMPR1B (human)
  kinase still bound, per cent of control: 49%
CAMK4 (human)
  kinase still bound, per cent of control: 1%
CDC42BPB (human)
  kinase still bound, per cent of control: 100%
CDC42BPG (human)
  kinase still bound, per cent of control: 100%
CDK5 (human)
  kinase still bound, per cent of control: 96%
CLK2 (human)
  kinase still bound, per cent of control: 2.2%
CSNK2A1 (human)
  kinase still bound, per cent of control: 100%
DAPK3 (human)
  kinase still bound, per cent of control: 83%
EPHA6 (human)
  kinase still bound, per cent of control: 100%
EPHB2 (human)
  kinase still bound, per cent of control: 100%
FLT3 (human)
  kinase still bound, per cent of control: 100%
GAK (human)
  kinase still bound, per cent of control: 6%
INSRR (human)
  kinase still bound, per cent of control: 0.4%
[2]
  kinase still bound, per cent of control: 100%
LIMK1 (human)
  kinase still bound, per cent of control: 100%
MAP2K1 (human)
  kinase still bound, per cent of control: 100%
MAP3K10 (human)
  kinase still bound, per cent of control: 100%
MAP3K3 (human)
  kinase still bound, per cent of control: 69%
MAP3K9 (human)
  kinase still bound, per cent of control: 94%
MAP4K5 (human)
  kinase still bound, per cent of control: 58%
MAPK15 (human)
  kinase still bound, per cent of control: 100%
MAPK3 (human)
  kinase still bound, per cent of control: 0.75%
MAPK8 (human)
  kinase still bound, per cent of control: 4.3%
MELK (human)
  kinase still bound, per cent of control: 92%
MYLK (human)
  kinase still bound, per cent of control: 0.9%
MYO3A (human)
  kinase still bound, per cent of control: 38%
NEK5 (human)
  kinase still bound, per cent of control: 100%
NTRK1 (human)
  kinase still bound, per cent of control: 72%
PIK3CA (human)
  kinase still bound, per cent of control: 99%
PRKACA (human)
  kinase still bound, per cent of control: 100%
RAF1 (human)
  kinase still bound, per cent of control: 100%
RIPK2 (human)
  kinase still bound, per cent of control: 100%
SIK2 (human)
  kinase still bound, per cent of control: 85%
STK3 (human)
  kinase still bound, per cent of control: 100%
STK38L (human)
  kinase still bound, per cent of control: 100%
TGFBR1 (human)
  kinase still bound, per cent of control: 95%
TIE1 (human)
  kinase still bound, per cent of control: 76%
TLK2 (human)
  kinase still bound, per cent of control: 100%
TSSK1B (human)
  kinase still bound, per cent of control: 92%
ZAP70 (human)
  kinase still bound, per cent of control: 32%

## CCN1CCN(Cc2ccc(NC(=O)c3ccc(C)c(Oc4ccnc5[nH]ccc45)c3)cc2C(F)(F)F)CC1
[1]
  kinase still bound, per cent of control: 0.35%
CDK5 (human)
  kinase still bound, per cent of control: 19%
EPHB2 (human)
  kinase still bound, per cent of control: 11%
FLT3 (human)
  kinase still bound, per cent of control: 0.15%
GAK (human)
  kinase still bound, per cent of control: 31%
INSRR (human)
  kinase still bound, per cent of control: 23%
MAP3K3 (human)
  kinase still bound, per cent of control: 12%
MAPK8 (human)
  kinase still bound, per cent of control: 0%
MYO3A (human)
  kinase still bound, per cent of control: 6.4%
RAF1 (human)
  kinase still bound, per cent of control: 7%
STK38L (human)
  kinase still bound, per cent of control: 6.8%
TIE1 (human)
  kinase still bound, per cent of control: 0.95%

From the kinase profiling compilation of Christmann-Franck et al. (2016)
